Data taken from US6884407B1, “Methods for diagnostic imaging involving the use of a contrast agent and a coronary vasodilator” (Bristol-Myers Squibb Pharma Company, priority 1996, dated 2005).
Where two headings read alike, the source gives them in different places.

Key:
[1] = cited from earlier work; for Boiling Point: Table 2, CRC Handbook
[2] = Calculated diameter of emulsified droplet to form a 10 μm vesicle (ideal gas law); assay type: physicochemical; conditions: for Diameter (μm) of emulsified droplet to make 10 micron vesicle: Table 2
Excerpt: As noted above, compositions employed herein may also include, with respect to their preparation, formation and use, gaseous precursors that can be activated to change from a liquid or solid state into a gas by temperature, pH, light, and energy (such as ultrasound). The gaseous precursors may be made into gas by storing the precursors at reduced pressure. For example, a vial stored under reduced pressure may create a headspace of perfluoropentane or perfluorohexane gas, useful for creating a preformed gas prior to injection. Preferably, the gaseous precursors may be activated by temperature. Set forth below is a table listing a series of gaseous precursors which undergo phase transitions from liquid to gaseous states at relatively close to normal body temperature (37° C.) or below, and the size of the emulsified droplets that would be required to form a vesicle of a maximum size of 10 μm.
The ideal gas law, which can be used for calculating the increase in the volume of the gas bubbles upon transitioning from liquid to gaseous states, is as follows: PV=nRT where
Thus, for stabilization of the precursor in the liquid state in a mixture wherein the precursor droplet is spherical, the volume of the precursor droplet may be determined by the equation: Volume (spherical vesicle)=4/3 πr^3 where
(B) where D is the density of the precursor. Solving for the diameter of the liquid droplet, diameter/2=[3/4π[4/3·[πrgas^3]P/RT]MWn/D]^1/3 (C) which reduces to Diameter=2[[rgas^3]P/RT[MWn/D]]^1/3.

[3] = cited from earlier work
[4] = saturated diacyl-sn-glycero-3-phosphocholines, main chain melting transition; cited from earlier work
myocardium = experiment: Ultrasound dose range studies of myocardium echo enhancement before and after coronary vasodilator; assay type: in vivo; conditions: 20 Kg pig, dipyridamole 0.56 mg/Kg IV over 4 minutes with gas filled vesicles of Example 1
Description: This example includes a description of methods for imaging the cardiovascular region of a patient in accordance with methods within the scope of the present invention.
A 20 Kg pig is anesthetized with isoflurane and a Swan Ganz catheter is inserted to monitor hemodynamics. Dose range studies are conducted using the gas filled vesicles prepared in Example 1 to determine the minimum dose required to enhance the myocardium echo, which is defined as greater than 10 videodensitometry units as determined by repeated videodensity measurements. After the dose range studies are performed, dipyridamole is administered intravenously at a dose of 0.56 mg/Kg over a period of 4 minutes. After a 5 minute latency period, dose range studies are repeated.

[5] = Table 2, CRC Handbook, in g/mL (unit assumed)

| Compound | Boiling Point [1] | Diameter (μm) of emulsified droplet to make 10 micron vesicle [2] | Density [3, 5] | Main Phase Transition Temperature [4] | other results |
| --- | --- | --- | --- | --- | --- |
| 2-methyl 1-butene | 31.2 °C | 2.5 μm | 0.6504 |  |  |
| CCCCCCCCCCCC(=O)OC[C@H](COP(=O)([O-])OCC[N+](C)(C)C)OC(=O)CCCCCCCCCCC [1,2-(12:0)] |  |  |  | −1.0 °C |  |
| CCCCCCCCCCCCC(=O)OC[C@H](COP(=O)([O-])OCC[N+](C)(C)C)OC(=O)CCCCCCCCCCCC [1,2-(13:0)] |  |  |  | 13.7 °C |  |
| CCCCCCCCCCCCCC(=O)OC[C@H](COP(=O)([O-])OCC[N+](C)(C)C)OC(=O)CCCCCCCCCCCCC [1,2-(14:0)] |  |  |  | 23.5 °C |  |
| CCCCCCCCCCCCCCC(=O)OC[C@H](COP(=O)([O-])OCC[N+](C)(C)C)OC(=O)CCCCCCCCCCCCCC [1,2-(15:0)] |  |  |  | 34.5 °C |  |
| CCCCCCCCCCCCCCCC(=O)OC[C@H](COP(=O)([O-])OCC[N+](C)(C)C)OC(=O)CCCCCCCCCCCCCCC [1,2-(16:0)] |  |  |  | 41.4 °C |  |
| CCCCCCCCCCCCCCCCC(=O)OC[C@H](COP(=O)([O-])OCC[N+](C)(C)C)OC(=O)CCCCCCCCCCCCCCCC [1,2-(17:0)] |  |  |  | 48.2 °C |  |
| CCCCCCCCCCCCCCCCCC(=O)OC[C@H](COP(=O)([O-])OCC[N+](C)(C)C)OC(=O)CCCCCCCCCCCCCCCCC [1,2-(18:0)] |  |  |  | 55.1 °C |  |
| CCCCCCCCCCCCCCCCCCC(=O)OC[C@H](COP(=O)([O-])OCC[N+](C)(C)C)OC(=O)CCCCCCCCCCCCCCCCCC [1,2-(19:0)] |  |  |  | 61.8 °C |  |
| CCCCCCCCCCCCCCCCCCCC(=O)OC[C@H](COP(=O)([O-])OCC[N+](C)(C)C)OC(=O)CCCCCCCCCCCCCCCCCCC [1,2-(20:0)] |  |  |  | 64.5 °C |  |
| CCCCCCCCCCCCCCCCCCCCC(=O)OC[C@H](COP(=O)([O-])OCC[N+](C)(C)C)OC(=O)CCCCCCCCCCCCCCCCCCCC [1,2-(21:0)] |  |  |  | 71.1 °C |  |
| CCCCCCCCCCCCCCCCCCCCCC(=O)OC[C@H](COP(=O)([O-])OCC[N+](C)(C)C)OC(=O)CCCCCCCCCCCCCCCCCCCCC [1,2-(22:0)] |  |  |  | 74.0 °C |  |
| CCCCCCCCCCCCCCCCCCCCCCC(=O)OCC(COP(=O)([O-])OCC[N+](C)(C)C)OC(=O)CCCCCCCCCCCCCCCCCCCCCC (stereo not shown) [1,2-(23:0)] |  |  |  | 79.5 °C |  |
| CCCCCCCCCCCCCCCCCCCCCCCC(=O)OCC(COP(=O)([O-])OCC[N+](C)(C)C)OC(=O)CCCCCCCCCCCCCCCCCCCCCCC (stereo not shown) [1,2-(24:0)] |  |  |  | 80.1 °C |  |
| C#CC(=C)C [1-butene-3-yne-2-methyl] | 34.0 °C | 2.4 μm | 0.6801 |  |  |
| CCCCF [1-fluorobutane] | 32.5 °C | 1.2 μm | 0.6779 |  | liquid/gas phase transition temperature (boiling point) [1]: 32.5 °C; diameter of emulsion droplets to make a gaseous precursor filled vesicle with an upper limit of 10 μm ([2]; equation (C), 37° C., 1 atmosphere): 0.0544 μm; Density ([3]; at 20° C.): 0.7789 g/mL |
| CCC(C)C [2-methyl butane (isopentane), 2-methyl butane] |  | 2.6 μm | 0.6201 |  |  |
| CC=C(C)C [2-methyl-2-butene] | 38.6 °C | 2.5 μm | 0.6623 |  |  |
| C#CC(C)C [3-methyl-1-butyne] | 29.5 °C | 2.5 μm | 0.6660 |  |  |
| FC(F)(F)C(F)(F)C(F)(F)C(F)(F)F [decafluoro butane, perfluorobutane] | −2 °C | 3.0 μm | 1.517 |  | liquid/gas phase transition temperature (boiling point) [1]: 4 °C |
| OCCN(CCO)c1nc(N2CCCCC2)c2nc(N(CCO)CCO)nc(N3CCCCC3)c2n1 [dipyridamole] |  |  |  |  | diagnostic artifacts (myocardium): substantially eliminated; dosage of contrast agent required to obtain a medically useful diagnostic image of the cardiovascular region (myocardium; after vs before dipyridamole): significantly smaller dosage |
| FC(F)(F)C(F)(F)F [hexafluoro ethane] |  | 2.7 μm | 1.607 |  |  |
| FC1(F)C(F)(F)C(F)(F)C1(F)F [octafluoro cyclobutane, octafluorocyclobutane] | −5.8 °C | 2.8 μm | 1.48 |  |  |
| FC(F)(F)C(F)(F)C(F)(F)C(F)(F)C(F)(F)F [perfluoro pentane, perfluoropentane] | 29.5 °C | 2.9 μm | 1.7326 |  | liquid/gas phase transition temperature (boiling point) [1]: 29.5 °C |
| FC(F)(F)C(F)(F)C(F)(F)C(F)(F)C(F)(F)C(F)(F)F [perfluorohexane] |  |  |  |  | liquid/gas phase transition temperature (boiling point) [1]: 57 °C |
